According to ChEMBL document CHEMBL1127340, “A new approach to the design of sigma-2-selective ligands: synthesis and evaluation of N-[2-(3,4-dichlorophenyl)ethyl]-N-methyl-2-(1- pyrrolidinyl)ethylamine-related polyamines at sigma-1 and sigma-2 receptor subtypes” (J Med Chem, 1994):

Biological target: Sigma 2 receptor
Assay: Binding affinity towards sigma 2 receptor was determined in rat liver membrane using [3H]DTG as radioligand in presence of dextrallorphan
Assay type: cell membranes

Row | Structure (SMILES) | Ki [nM]
1 | CN(CCCN(C)Cc1ccc(Cl)c(Cl)c1)CCN1CCCC1 | 52.6
2 | Clc1ccc(CCN2CCCC2)cc1Cl | 7700
3 | NCCNCCNCCc1ccc(Cl)c(Cl)c1 | 537
4 | CN(CCCCN1CCCC1)CCCN(C)CCc1ccc(Cl)c(Cl)c1 | 152
5 | CN(CCc1ccc(Cl)c(Cl)c1)CCN(C)CCN(C)CCN(C)CCN1CCCC1 | 162
6 | CN(CCCCN(C)CCc1ccc(Cl)c(Cl)c1)CCCCN1CCCC1 | 115
7 | Clc1ccc(CCNCCNCCN2CCCC2)cc1Cl | 111
8 | CN(CCCN1CCCC1)CCN(C)Cc1ccc(Cl)c(Cl)c1 | 183
9 | NCCNCCc1ccc(Cl)c(Cl)c1 | 2360
10 | NCCN(CCc1ccc(Cl)c(Cl)c1)CCN1CCCC1 | 135

Results, then the compound that gave them:

Row | Ki [nM] | Structure (SMILES)
11 | 12.1 | CN(CCN(C)Cc1ccc(Cl)c(Cl)c1)CCN1CCCC1
12 | 53.6 | CN(CCc1ccc(Cl)c(Cl)c1)CCN(C)CCN(C)CCN1CCCC1
13 | 14.4 | CN(CCc1ccc(Cl)c(Cl)c1)CCN(C)CCN1CCCC1
14 | 14.9 | CN(CCCN(C)CCc1ccc(Cl)c(Cl)c1)CCCN1CCCC1
15 | 8.1 | CN(CCc1ccc(Cl)c(Cl)c1)CCN1CCCC1
